The target of the assay is T1, PAR1 (Homo sapiens, UniProt P25116).
T1 sequence (P25116 22-425): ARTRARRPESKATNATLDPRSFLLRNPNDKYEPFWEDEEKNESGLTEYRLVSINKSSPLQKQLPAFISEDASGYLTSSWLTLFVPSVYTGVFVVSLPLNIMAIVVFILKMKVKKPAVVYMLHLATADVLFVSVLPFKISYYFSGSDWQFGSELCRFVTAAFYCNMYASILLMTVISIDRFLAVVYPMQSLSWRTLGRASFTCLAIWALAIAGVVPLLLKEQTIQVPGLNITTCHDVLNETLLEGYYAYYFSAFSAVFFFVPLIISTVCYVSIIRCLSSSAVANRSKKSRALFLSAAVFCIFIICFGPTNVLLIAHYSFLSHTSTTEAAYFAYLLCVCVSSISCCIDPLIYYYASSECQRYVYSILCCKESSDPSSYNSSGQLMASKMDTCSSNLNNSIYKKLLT
Briefly: Calcium ion influx experiment (FLIPR), PAR1 inhibition activity, HEK293-Ga15-PAR1 cell strain, agonist haTRAP. Particulars: HEK293-Ga15-PAR1 cells; for IC50: calcium influx, agonist haTRAP 3 μM, 4-PL fit; for Slope: slope of 4-PL dosage-effect curve, haTRAP 3 μM. In kind it is cell-based. As for the experimental part:
Embodiment 6: Determination of Biological Activity (PAR1 Inhibition Activity) of the Compound
An HEK293-Ga15-PAR1 cell strain (HD Biosciences stable cell strain) was quickly taken out of a liquid nitrogen tank, and shaken continuously in a 37° C. water bath until it was completely melted. A cell suspension was quickly added into a pre-heated culture medium (90% DMEM+10% FBS+1× Pen/Strep), placed in a centrifuge and centrifuged at 1000 rpm for 10 minutes. A centrifugal tube was taken out, the supernatant was discarded, and the fresh pre-heated culture medium was added into the centrifugal tube, cells were resuspended, and the cell suspension was added into a culture dish and cultured at 37° C. with 5% of CO2.
When the cells reached 80-90% of the culture dish, the cells were gently washed with 0.05% of trypsin-EDTA, part of digestive juice was removed, then the cells were incubated for 2-3 min, the digestion was terminated with the new culture medium, the cells were gently blew with a gun head, and the cells were resuspended. In general, the passage was performed according to 1:4 to 1:8 every 2 to 3 days.
On the day before the experiment, 1× Matrigel (Brand: BD, Cat #: 356230) was added into a clean 384-well cell plate, incubated at 37° C. for 30 minutes, and then inverted and centrifuged at 500 rpm for 30 seconds to remove the coating solution.
The cell precipitate was digested and collected, resuspended in the culture medium to 3×10^5 cells/mL, added into the coated cell plate according to 50 μL per well and then incubated at 37° C. with 5% of CO2 overnight.
On the day of the experiment, the fresh experimental buffer solution and 0.5× Calcium 4 (Brand: Molecular Devices, Cat #: R8141) loading buffer solution were prepared.
The 30 mM DMSO stock solution was first diluted with DMSO to 10 mM, and then diluted 4 times from 10 mM for a total of 10 concentrations. Ten DMSO concentration gradients of the compound were added into the experimental buffer solution at a ratio of 1:20 to prepare a working solution of the compound (5 times the final reaction concentration). After that, the working solution of the compound was transferred into a 384-well compound plate according to the layout in the following drawing for later use.
Positive control: 40 mM DMSO stock solution of the reference compound SCH79797 was diluted to 2 mM;
Negative control: 5% of DMSO prepared from the experimental buffer solution
10 mM DMSO stock of the agonist haTRAP was diluted with the experimental buffer solution to 18 μM (6 times the final reaction concentration 3 μM), and then transferred into a 384-well compound plate, at least at 25 μl/well for later use.
The cell plate incubated overnight was taken out, the cell culture medium was removed by centrifugation at 300 rpm for 30 seconds, 20 μL of freshly prepared 0.5× Calcium 4 loading buffer solution was added into every well and then incubation was performed at 37° C. with 5% of CO2 for 1 hour.
The compound working solution was transferred from the compound plate to the cell plate at 5 μL/well according to the layout, then placed at 37° C. again and incubated with 5% of CO2 for 15 minutes.
The agonist was transferred from the 384-well compound plate (FLIPR) to the cell plate at 5 μL/well according to the program set by FLIPR, and the fluorescent signals in each well of the cell plate were simultaneously read.
The inhibition rate (%) of the compound in each well on the cell plate was calculated according to the fluorescence signal values of the positive control and the negative control on each cell plate. […] The inhibition rates and the corresponding concentrations of the compounds obtained by calculation were introduced into the relevant software for graphing, and the IC50 values of the compounds were calculated according to the 4-PL dosage-effect formula. The IC50 result of the reference compound is also one of standards for testing the quality of every experiment.

Consider eleven compounds from patent US10385041B2, “Terpene derivative-based PAR1 inhibitor, preparation method thereof, and use in treatment of thrombotic diseases” (SHANDONG UNIVERSITY, priority 2015, dated 2019).

The term IC50 denotes the concentration that gives 50% inhibition.

With `C[C@]1(CO)[C@H]2CCC3(CO3)[C@@H](/C=C/c3ccc(-c4cccc(F)c4)cn3)[C@]2(C)CC[C@H]1O` (stereo partly drawn) [Compound I-1], the IC50 is 7.76 µM. For `C[C@]1(CO)[C@H]2CCC3(CO3)[C@@H](/C=C/c3ccc(-c4cccc(C(F)(F)F)c4)cn3)[C@]2(C)CC[C@H]1O` (stereo partly drawn) [Compound I-2], the half-inhibitory concentration (IC50) worked out at 7.95 µM. With `C[C@]1(CO)[C@H]2CCC(CO)[C@@H](CCc3ccc(-c4cccc(F)c4)cn3)[C@]2(C)CC[C@H]1O` (stereo partly drawn) [Compound I-3], the IC50 worked out at 8.91 µM. As for `C[C@]1(CO)[C@H]2CCC(CO)[C@@H](CCc3ccc(-c4cccc(C(F)(F)F)c4)cn3)[C@]2(C)CC[C@H]1O` (stereo partly drawn) [Compound I-4], the IC50 stood at 8.76 µM. On to `COC[C@@]1(C)[C@H]2CCC3(CO3)[C@@H](/C=C/c3ccc(-c4cccc(F)c4)cn3)[C@]2(C)CC[C@H]1O` (stereo partly drawn) [Compound I-5], for which the IC50 was 7.07 µM and the Slope worked out at 2.59. In the same order, the values of `CO[C@@H]1CC[C@]2(C)[C@H](CCC3(CO3)[C@H]2/C=C/c2ccc(-c3cccc(F)c3)cn2)[C@]1(C)CO` (stereo partly drawn) [Compound I-6] are 11 µM and 1.53. In the same order, the values of `C[C@@]1(C=O)[C@H](O)CC[C@@]2(C)[C@H](/C=C/c3ccc(-c4cccc(F)c4)cn3)C3(CC[C@H]12)CO3` (stereo partly drawn) [Compound I-7] are 3.52 µM and 1.02. In the same order, the values of `C[C@@]12CC[C@@H](O)[C@@](C)(C(=O)O)[C@H]1CCC1(CO1)[C@H]2/C=C/c1ccc(-c2cccc(F)c2)cn1` (stereo partly drawn) [Compound I-8] are 31.6 µM and 1.97. As for `COC(=O)[C@]1(C)[C@H](O)CC[C@@]2(C)[C@H](/C=C/c3ccc(-c4cccc(F)c4)cn3)C3(CC[C@@H]21)CO3` (stereo partly drawn) [Compound I-9], the IC50 worked out at 0.66 µM and the Slope was 0.97.

`C[C@@]1(C(=O)O)C(=O)CC[C@@]2(C)[C@H](/C=C/c3ccc(-c4cccc(F)c4)cn3)C3(CC[C@H]12)CO3` (stereo partly drawn) [Compound I-10]: the IC50 came to 19.7 µM and the Slope was found to be 1.23.

Consider `CC(C)c1ccc(Cn2ccc3c4c(N)nc(NC5CC5)nc4ccc32)cc1` [SCH79797, reference compound], for which the 50% inhibitory concentration (IC50) was determined as 8.71 µM and the Slope worked out at 0.95.
